The values that follow come from patent US12378519B2, “Microfluidic model of the blood brain barrier” (EMULATE, Inc., priority 2015, dated 2025).

Common to all, as to type: cell-based, human
One experiment has as its system iBMEC barrier function. Description: TEER measurement on prototype TEER chips under flow. The settings on record: exposure of the chips to TNFa after flow, FIG. 14A. As to the method: Cells were plated on tall channel PDMS chips equipped with incorporated gold electrodes on each channel (see FIG. 13A). Post seeding of BMECs, transendothelial electrical resistance was measured by connecting the electrodes to an EVOM2 voltohmmeter (see FIG. 13B). […] The “damaged” chip was a failure due to the TEER-Chips being a prototype.
Higher TEER values generally indicate a tighter barrier, which is typically desirable for a blood-brain barrier.

Experiment [1] relates to BMECs seeded on a microfluidic device. Put plainly: Paracellular permeability assay with Dextran-FITC on chip. The conditions noted are these: TNF-alpha exposure, FIG. 14B. As for the experimental part: Albumin or Dextran conjugated to a fluorescent probe (e.g., FITC or TRITC) are frequently used to monitor changes in leakage, and thus barrier function. In this case, Dextran-FITC, a green fluorescent molecule of 4 KDa, or sodium fluorescein (a 0.3 KDa molecule), was added to the bottom (“blood side”) channel. Paracellular permeability was calculated by measuring the permeability of the fluorescent molecule on the Top (“brain side”) channel. […] FIG. 14B involves TNF-alpha exposure, but the readout is membrane permeability as measured by Dextran-FITC.

A further experiment concerns neurons seeded in chip.

Turning to TNFa, the “iBMEC barrier function (TEER)” value in the experiment on iBMEC barrier function is reported as “weakening of barrier function”. Moreover, in experiment [1], the “membrane permeability as measured by Dextran-FITC” value is recorded as “increase in permeability”.

With `NC1=N[C@H](O)[C@H]2[C@H]3O[C@]4(O)O[C@@H]([C@@H](O)[C@@]2(N1)[C@@H]4O)[C@]3(O)CO` [TTX, tetrodotoxin], the “neuronal activity (Ca2+ fluxes, dF/F)” value in the experiment with neurons seeded in chip is on record as “ablates this activity”.
